Experiment [1] deals with Candida albicans, Candida tropicalis, Candida stellatoidea, Candida parapsilosis, Candida krusei. The experiment is described as follows: In vitro anti-fungal microtiter minimum inhibitory concentration (MIC) test, geometric mean over Candida strains. In kind it is cell-based. The method, then:
The geometric mean is taken from the following strains
Candida stellatoidea C184
The minimum inhibitory concentrations (GMMICs-R(μg/ml) for Ca (SDB) Ca (EMEM) (Derm) and (Asp) for the compounds of formula I of the invention are as shown in Table 2 above.
The minimum inhibitory concentrations were determined in accordance with the procedure set forth just below.
In vitro anti-fungal activity was determined in microtiter minimum inhibitory concentration (MIC) tests using Yeast Nitrogen Broth (YNB without amino acids, Difco., Detroit, Mich.) at pH 5.4. Yeasts were grown overnight in Sabouraud Dextrose Broth at 28° C. with shaking, and concentrations adjusted in sterile saline using a spectrophoptometer at 540 mμ. Compounds were dissolved in various vehicles and diluted in media to twice the final concentrations. The Cetus Pro/Pette system was used to serially dilute 50 μl in round bottom 96 well plates (Falcon, Lincoln Park, N.J.). The turbidometrically adjusted yeast suspensions were diluted 1:3,000 in YNB. These dilutions when added to the wells, produced a final inoculum of 3×10^3 /ml. Plates were incubated at 37° C. for 48 hours. MICs were defined as the lowest concentrations of compound that prevented visible growth. MICs were taken against the following organisms and expressed in the table above as the geometric mean.

Another experiment has as its system C. Albicans, C-43. In words: In vivo anti-fungal activity, C. albicans infection study in mice. The conditions noted are these: once a day for 4 days starting 4 hours post infection. The protocol: In vivo anti-fungal activity for compounds of formula I of the invention was determined by using the test protocol set forth in Cacciapuoti et al, ANTIMICROBIAL AGENTS AND CHEMOTHERAPY, Vol.36, No. 1, January 1992, p. 64-67, which is hereby incorporated by reference. The specific test protocol used to obtain the data given below, appears in the just above mentioned article at pages 64 and 65 under the heading "C. albicans infection studies". Data obtained from this test protocol are as follows:
The numbering for the compounds tested is the same as the numbering used for the compounds in the rest of the application. The mice used in the above experiment were Charles River, white, male, mice weighing between 18 and 20 grams. The organism used to infect the mice was C. Albicans, C-43, 1XE6 CFU/mice, 0.1 M1 IV. The treatment was once a day for 4 days starting 4 hours post infection for those compounds which have a * next to them. For those compounds which have no * next to them, the treatment was once a day for 4 days starting 24 hours post infection. The dose was 0.1 ml/mouse in either case. The vehicle used with the compounds was Tween 80:Ethanol:PBS (1:9:40 or 2%:18%:80%)

Where [2] appears, read: EMEM, geometric mean over 14 Candida strains, 37° C., 48 hours.
Where [3] appears, read: SDB, geometric mean over 14 Candida strains, 37° C., 48 hours.

Molecules are shown by their SMILES. Starred links: 1 amine or outer side, 2 acyl side, 3 side chain; linkers in the order of their positions; H or OH if unused. Non-standard residues stand in square brackets, D forms with d. Residues, ends and D or L forms follow the SMILES beside them. X1 = O=C([C@H](O[*:1])C1CCCCC1)[*:2]; X2 = O=C([C@H](O[*:1])c1ccccc1)[*:2]; X3 = O=C([C@H](O[*:1])C1CCCC1)[*:2]; X4 = O=C([C@@H](O[*:1])C1CC1)[*:2]; NMeF = CN[C@@H](Cc1ccccc1)C(=O)O; NMeT = CN[C@H](C(=O)O)[C@@H](C)O; aIle = CC[C@@H](C)[C@H](N)C(=O)O; NMeV = CN[C@H](C(=O)O)C(C)C; dHiv = CC(C)[C@@H](O)C(=O)O; Pip = O=C(O)[C@@H]1CCCCN1; Aze = O=C(O)[C@@H]1CCN1

For the molecule `CC[C@@H](C)[C@@H]1NC(=O)[C@@H]2CCCN2C(=O)[C@H](Cc2ccccc2)N(C)C(=O)[C@H](Cc2ccccc2)NC(=O)[C@H](C(C)C)N(C)C(=O)[C@@H](C2CCCCC2)OC(=O)[C@H]([C@@H](C)O)N(C)C(=O)[C@H](CC(C)C)NC(=O)[C@H](C(C)C)N(C)C1=O` [Compound 1, Cyclo-depsi-N-methyl-threonyl-(2-hydroxyl-2-cyclohexylacetyl)-N-methylvalyl-phenylanalyl-N-methylphenylanalyl-prolyl-allo-isoleucyl-N-methylvalyl-leucine] (cyclo(F[NMeF]P[aIle][NMeV]L[NMeT][X1][NMeV])), the “Geo. Mean MICs (μg/ml) Ca. (EMEM)” value in experiment [1] (setting [2]) came to 0.288 µg/mL. Also, the “Geo. Mean MICs (μg/ml) Ca. (SDB)” value in experiment [1] (setting [3]) was determined as 0.018 µg/mL. The “% Survival” value was found to be 60% in the experiment on C. Albicans, C-43 (5 MPK IV); 70% in the experiment on C. Albicans, C-43 (5 MPK PO); 70% with C. Albicans, C-43 (10 MPK IV); 100% in the experiment on C. Albicans, C-43 (10 MPK PO); 100% in the experiment on C. Albicans, C-43 (20 MPK PO); 100% in the experiment on C. Albicans, C-43 (40 MPK PO). Further, the “CFUs (GM)” value came to 6.90 in the experiment with C. Albicans, C-43 (5 MPK IV); 6.68 in the experiment on C. Albicans, C-43 (5 MPK PO); 7.11 in the experiment on C. Albicans, C-43 (10 MPK IV); 6.01 in the experiment with C. Albicans, C-43 (10 MPK PO); 6.38 with C. Albicans, C-43 (20 MPK PO); 6.52 in the experiment on C. Albicans, C-43 (40 MPK PO).
For `CC[C@@H](C)[C@@H]1NC(=O)[C@@H]2CCN2C(=O)[C@H](Cc2ccccc2)N(C)C(=O)[C@H](Cc2ccccc2)NC(=O)[C@H](C(C)C)N(C)C(=O)[C@@H](C2CCCCC2)OC(=O)[C@H]([C@@H](C)O)N(C)C(=O)[C@H](CC(C)C)NC(=O)[C@H](C(C)C)N(C)C1=O` [Compound 2, Cyclo-depsi-N-methyl-threonyl-(2-hydroxy-2-cyclohexylacetyl)-N-methylvalyl-phenylalanyl-N-methylphenylalanyl-azetidinyl-allo-isoleucyl-N-methylvalyl-leucine] (cyclo([Aze][aIle][NMeV]L[NMeT][X1][NMeV]F[NMeF])), the “Geo. Mean MICs (μg/ml) Ca. (EMEM)” value in experiment [1] (setting [2]) stood at 0.353 µg/mL. For the same molecule, the “Geo. Mean MICs (μg/ml) Ca. (SDB)” value in experiment [1] (setting [3]) came out at 0.062 µg/mL.
With `CC[C@@H](C)[C@@H]1NC(=O)[C@@H]2CCCN2C(=O)[C@H](Cc2ccccc2)N(C)C(=O)[C@H](Cc2ccccc2)NC(=O)[C@H](C(C)C)N(C)C(=O)[C@@H](C(C)C)OC(=O)[C@H]([C@@H](C)O)N(C)C(=O)[C@H](CC(C)C)NC(=O)[C@H](C(C)C)N(C)C1=O` [Compound 4] (cyclo(F[NMeF]P[aIle][NMeV]L[NMeT][dHiv][NMeV])), in experiment [1] (48 h), the “Geo. Mean MICs (μg/ml) Ca. (EMEM)” value came to 0.500 µg/mL and the “Geo. Mean MICs (μg/ml) Ca. (SDB)” value was found to be 0.032 µg/mL.
Take `CC[C@@H](C)[C@@H]1NC(=O)[C@@H]2CCN2C(=O)[C@H](Cc2ccccc2)N(C)C(=O)[C@H](Cc2ccccc2)NC(=O)[C@H](C(C)C)N(C)C(=O)[C@@H](C2CCCC2)OC(=O)[C@H]([C@@H](C)O)N(C)C(=O)[C@H](CC(C)C)NC(=O)[C@H](C(C)C)N(C)C1=O` [Compound 5] (cyclo([Aze][aIle][NMeV]L[NMeT][X3][NMeV]F[NMeF])): in experiment [1] (48 h), the “Geo. Mean MICs (μg/ml) Ca. (EMEM)” value came to 0.195 µg/mL and the “Geo. Mean MICs (μg/ml) Ca. (SDB)” value worked out at 0.015 µg/mL.
The corresponding values for `CC[C@@H](C)[C@@H]1NC(=O)[C@@H]2CCCN2C(=O)[C@H](Cc2ccccc2)N(C)C(=O)[C@H](Cc2ccccc2)NC(=O)[C@H](C(C)C)N(C)C(=O)[C@@H](C2CCCC2)OC(=O)[C@H]([C@@H](C)O)N(C)C(=O)[C@H](CC(C)C)NC(=O)[C@H](C(C)C)N(C)C1=O` [Compound 6] (cyclo(F[NMeF]P[aIle][NMeV]L[NMeT][X3][NMeV])) are 0.500 µg/mL and 0.090 µg/mL.
As for `CC[C@@H](C)[C@@H]1NC(=O)[C@@H]2CCCN2C(=O)[C@H](Cc2ccccc2)N(C)C(=O)[C@H](Cc2ccccc2)NC(=O)[C@H](C(C)C)N(C)C(=O)[C@@H](c2ccccc2)OC(=O)[C@H]([C@@H](C)O)N(C)C(=O)[C@H](CC(C)C)NC(=O)[C@H](C(C)C)N(C)C1=O` [Compound 7] (cyclo(F[NMeF]P[aIle][NMeV]L[NMeT][X2][NMeV])), in experiment [1] (48 h), the “Geo. Mean MICs (μg/ml) Ca. (EMEM)” value amounted to 0.710 µg/mL and the “Geo. Mean MICs (μg/ml) Ca. (SDB)” value was 0.170 µg/mL.
The corresponding values for `CC[C@@H](C)[C@@H]1NC(=O)[C@@H]2CCCN2C(=O)[C@H](Cc2ccccc2)N(C)C(=O)[C@H](Cc2ccccc2)NC(=O)[C@H](C(C)C)N(C)C(=O)[C@H](C2CC2)OC(=O)[C@H]([C@@H](C)O)N(C)C(=O)[C@H](CC(C)C)NC(=O)[C@H](C(C)C)N(C)C1=O` [Compound 8] (cyclo([X4][NMeV]F[NMeF]P[aIle][NMeV]L[NMeT])) are 0.780 µg/mL and 0.133 µg/mL.
The corresponding values for `CC[C@@H](C)[C@@H]1NC(=O)[C@@H]2CCCCN2C(=O)[C@H](Cc2ccccc2)N(C)C(=O)[C@H](Cc2ccccc2)NC(=O)[C@H](C(C)C)N(C)C(=O)[C@@H](C2CCCCC2)OC(=O)[C@H]([C@@H](C)O)N(C)C(=O)[C@H](CC(C)C)NC(=O)[C@H](C(C)C)N(C)C1=O` [Compound 9] (cyclo(F[NMeF][Pip][aIle][NMeV]L[NMeT][X1][NMeV])) are 0.475 µg/mL and 0.290 µg/mL.

The values are drawn from US5739104A, “Anti-fungal agents” (Schering Corporation, priority 1995, dated 1998).
